Results: patent publication US20220347306A1, “SELECTIVE DELIVERY OF THERAPEUTIC AND IMAGING AGENTS” (priority 2018, published 2022)

Key:
[1] = test system: HT1080 fibrosarcoma cells; assay: Cancer cell viability assay using human HT1080 fibrosarcoma cells; format: cell-based; details: four days incubation, reduction of viable cells, SDM as such
Protocol: Method: Plate cells one day prior to start of assay in 96 well black with clear bottom plates (Corning #3603), 2×10^4 cells per well in 100 μL of standard growth media (according to ATCC). Grow cells to 90% confluency.
Before start of assay rinse cells IX with DPBS. Add compounds in a 3-fold serial dilution in triplicate (range e.g. 8.1 μM-3.7 nM), 100 μL per well in standard growth media.
Incubate four days then assay cell viability as described below. Remove media and rinse IX with DPBS, then add 100 μL per well 10% Prestoblue Cell viability reagent (Thermo Fisher Scientific #A13261) in complete media. Return to incubator for two hours then read plate on SpectraMax M2e, bottom read excitation 555 emission 585 cut-off 570 which measures number of live cells. […] In most cases, SDMs were also tested in activated form by pre-treatment with protease that activates the compound. […] In Table 9 this is represented as ACT SDM-200.

[2] = test system: HT1080 human fibrosarcoma subcutaneous tumor xenograft; assay: Human fibrosarcoma tumor xenograft therapeutic model, tumor growth; format: in vivo, athymic nude mice; details: dosed at 0.6 to 3.0 mg/kg of cytotoxic payload component, intravenously twice 3 days apart, evaluated day 9
Protocol: (§1) Female athymic nude mice (8-10 weeks old) purchased from Charles River (Wilmington, 01887, MA) were used after 4-7 day of acclimatization period. […] Human fibrosarcoma tumor cells from ATCC (CCL-121™) were grown using standard cell culture techniques. Tumor cells (1×10^8 tumor cells/mL) were suspended in DPBS/Matrigel™ (1:1 vol) and implanted subcutaneously (50 μL tumor cell suspension/mouse) into the upper mammary fat pad or right flank of mice with individual identification number (ear tag). Four to seven days later when the average tumor volume was about 50-100 mm^3, mice were randomized into different experimental groups based on identical averaged (Mean±SEM) tumor volume and dosed with (i) vehicle and (ii) different doses of test compounds. For each involved tumor-bearing mouse, the tumor volume (mm^3) was measured using a caliper and calculated as follows: tumor volume=width^2×length/2. Test compounds were administered intravenously (tail vein) twice (two administrations 3 days apart) in conscious restrained tumor-bearing mice throughout the study. Individual tumor volume, body weight as well as clinical signs were recorded during the study. Each study was terminated on day 12 post-dosing initiation. […] For each experimental group and study day, the tumor volumes from all involved mice were averaged and expressed as Mean±SEM. […]

[3] = Body weight (tolerability and toxicity) in human HT1080 fibrosarcoma xenograft model; details: 1 mg/kg of the cytotoxic agent component, IV on days 0 and 3
Protocol: as §1

Row | SMILES | EC50 [1] [nM] | Efficacy (percent tumor growth inhibition versus vehicle) [2] | Tolerability (FIG. 3B) [3] | Weight loss (body weight normalized to day 1, FIG. 3B) [3] [%]
1 | CC[C@H](C)C([C@@H](CC(=O)N1CCCC1[C@H](OC)[C@@H](C)C(=O)N[C@@H](Cc1ccccc1)C(=O)O)OC)N(C)C(=O)[C@@H](NC(=O)[C@H](C(C)C)N(C)C(=O)CNC(=O)[C@H](CCCNC(N)=O)NC(=O)[C@@H](NC(=O)[C@H](Cc1ccc(/C(C)=N\OCCCCCC(=O)N[C@@H](CC(=O)O)C(=O)NC(CC2CCCCC2)C(=O)NC(Cc2ccccc2)C(=O)N[C@H](CO)C(=O)N[C@H](CCCNC(N)N)C(=O)N[C@@H](Cc2ccc(O)cc2)C(=O)N[C@@H](CC(C)C)C(=O)N[C@@H](Cc2c[nH]c3ccccc23)C(=O)N[C@@H](CO)C(N)=O)cc1)NC(=O)CCCCCN1C(=O)C=CC1=O)C(C)C)C(C)C (some centres unmarked) [SDM-185] | < 300 | Medium (Medium: ≥29% inhibition to < 80% inhibition) |  | 
2 | [2H]C(=O)OCc1ccc(NC(=O)[C@H](CCCNC(N)=O)NC(=O)[C@@H](NC(=O)CCCCCN2C(=O)C=CC2=O)C(C)C)cc1 [SDM-155] |  |  | not tolerated | > 20
3 | [2H]CC(NC(=O)C(CCCNC(=N)N)NC(=O)[C@H](CCCNC(=N)N)NC(=O)[C@@H](CCCNC(=N)N)NC(=O)[C@H](CCCNC(=N)N)NC(=O)[C@@H](CCCNC(=N)N)NC(=O)[C@H](CCCNC(=N)N)NC(=O)[C@@H](CCCNC(=N)N)NC(=O)[C@H](CCCNC(=N)N)NC(=O)C(CO)NC(=O)[C@H](CCCNC(=N)N)NC(=O)[C@H](Cc1c[nH]c2ccccc12)NC(=O)C(CC(C)C)NC(=O)C(C)NC(=O)[C@H](CC(C)C)NC(=O)[C@@H]1CCCN1C(=O)[C@H](CCCNC(=N)N)NC(=O)COCCNC(=O)C(Cc1ccc(C(C)=O)cc1)NC(=O)[C@@H](CCC(=O)O)NC(=O)[C@@H](CCC(=O)O)NC(=O)[C@@H](CCC(=O)O)NC(=O)[C@@H](CCC(=O)O)NC(=O)[C@@H](CCC(=O)O)NC(=O)CCN1C(=O)C=CC1=O)C(N)=O (some centres unmarked) [SDM-173] |  | High (High: ≥80% inhibition) |  | 
